For the data set, the target named is UBE3A-ATS. In words: mouse, dose not given. To be noted: ASO.

HELM strings list units from the 5' end as sugar, base in round brackets, then linkage (d deoxyribose, r ribose, m 2'-O-methyl, p phosphodiester). Strings are as the collection lists them; they lack the last nucleoside at the 3' end of the tested compound. [moe] = 2'-O-(2-methoxyethyl) (MOE); [sp] = phosphorothioate linkage; [m5C] = 5-methylcytosine

Turning to “RNA1{[moe](G)[sp].[moe](G)p.[moe](A)p.[moe]([m5C])p.[moe](T)p.d(T)[sp].d(G)[sp].d(T)[sp].d([m5C])[sp].d(T)[sp].d(T)[sp].d(A)[sp].d(T)[sp].d(G)[sp].d(G)[sp].[moe]([m5C])p.[moe](T)p.[moe](G)[sp].[moe]([m5C])}$$$$ (last 3' nucleoside missing)”, the 3 h FOB score was determined as 1 score 0-7. With “RNA1{[moe](G)[sp].[moe](G)p.[moe](G)p.[moe](A)p.[moe](A)p.d(G)[sp].d(T)[sp].d([m5C])[sp].d(T)[sp].d(A)[sp].d(G)[sp].d(G)[sp].d(T)[sp].d([m5C])[sp].d(T)[sp].[moe]([m5C])p.[moe](A)p.[moe]([m5C])[sp].[moe](G)}$$$$ (last 3' nucleoside missing)” the figure was 3.2 score 0-7; with “RNA1{[moe](G)[sp].[moe](G)p.[moe](G)p.[moe](A)p.[moe](A)p.d([m5C])[sp].d(A)[sp].d([m5C])[sp].d(A)[sp].d([m5C])[sp].d([m5C])[sp].d(A)[sp].d(T)[sp].d(T)[sp].d([m5C])[sp].[moe](A)p.[moe](G)p.[moe]([m5C])[sp].[moe](A)}$$$$ (last 3' nucleoside missing)”, 4.5 score 0-7; with “RNA1{[moe](G)[sp].[moe](G)p.[moe](G)p.[moe](A)p.[moe](G)p.d(G)[sp].d(A)[sp].d(G)[sp].d(T)[sp].d([m5C])[sp].d([m5C])[sp].d([m5C])[sp].d([m5C])[sp].d(A)[sp].d(G)[sp].[moe](A)p.[moe](T)p.[moe](A)[sp].[moe](A)}$$$$ (last 3' nucleoside missing)”, 1.2 score 0-7. With “RNA1{[moe](G)[sp].[moe](G)p.[moe](G)p.[moe](A)p.[moe](T)p.d(A)[sp].d(T)[sp].d(A)[sp].d(T)[sp].d([m5C])[sp].d(A)[sp].d([m5C])[sp].d(T)[sp].d(T)[sp].d(G)[sp].[moe](G)p.[moe](A)p.[moe](G)[sp].[moe]([m5C])}$$$$ (last 3' nucleoside missing)” the figure was 4 score 0-7; with “RNA1{[moe](G)[sp].[moe](G)p.[moe](G)p.[moe](A)p.[moe](T)p.d(T)[sp].d(T)[sp].d(A)[sp].d([m5C])[sp].d([m5C])[sp].d([m5C])[sp].d(A)[sp].d(T)[sp].d(T)[sp].d(G)[sp].[moe]([m5C])p.[moe](A)p.[moe](A)[sp].[moe](G)}$$$$ (last 3' nucleoside missing)”, 1 score 0-7; with “RNA1{[moe](G)[sp].[moe](G)p.[moe](G)p.[moe](T)p.[moe](A)p.d(G)[sp].d(A)[sp].d(A)[sp].d(G)[sp].d(A)[sp].d([m5C])[sp].d(T)[sp].d(A)[sp].d(G)[sp].d([m5C])[sp].[moe](A)p.[moe](T)p.[moe](A)[sp].[moe]([m5C])}$$$$ (last 3' nucleoside missing)”, 5.8 score 0-7. Regarding “RNA1{[moe](G)[sp].[moe](G)p.[moe](G)p.[moe](T)p.[moe](A)p.d(T)[sp].d(T)[sp].d(G)[sp].d([m5C])[sp].d(T)[sp].d(G)[sp].d(T)[sp].d([m5C])[sp].d([m5C])[sp].d(A)[sp].[moe](A)p.[moe](A)p.[moe](T)[sp].[moe](G)}$$$$ (last 3' nucleoside missing)”, the 3 h FOB score is 6.8 score 0-7.

“RNA1{[moe](G)[sp].[moe](G)p.[moe](G)p.[moe](T)p.[moe](A)p.d([m5C])[sp].d(T)[sp].d(A)[sp].d(T)[sp].d(G)[sp].d(T)[sp].d(T)[sp].d(G)[sp].d(T)[sp].d([m5C])[sp].[moe](A)p.[moe]([m5C])p.[moe](T)[sp].[moe](G)}$$$$ (last 3' nucleoside missing)” showed a 3 h FOB score of 6 score 0-7. With “RNA1{[moe](G)[sp].[moe](G)p.[moe](G)p.[moe](T)p.[moe](T)p.d(A)[sp].d([m5C])[sp].d(T)[sp].d(T)[sp].d(T)[sp].d([m5C])[sp].d([m5C])[sp].d(A)[sp].d(A)[sp].d(T)[sp].[moe](A)p.[moe](G)p.[moe](A)[sp].[moe](G)}$$$$ (last 3' nucleoside missing)” the figure was 1.5 score 0-7; with “RNA1{[moe](G)[sp].[moe](G)p.[moe](G)p.[moe](T)p.[moe]([m5C])p.d(G)[sp].d(G)[sp].d(A)[sp].d(T)[sp].d(A)[sp].d(T)[sp].d(A)[sp].d(G)[sp].d([m5C])[sp].d(T)[sp].[moe](T)p.[moe](T)p.[moe](T)[sp].[moe](A)}$$$$ (last 3' nucleoside missing)”, 5 score 0-7. The substance “RNA1{[moe](G)[sp].[moe](G)p.[moe](G)p.[moe]([m5C])p.[moe](A)p.d(A)[sp].d(A)[sp].d(A)[sp].d(A)[sp].d(T)[sp].d(A)[sp].d(G)[sp].d([m5C])[sp].d(A)[sp].d(A)[sp].[moe]([m5C])p.[moe](A)p.[moe](T)[sp].[moe](A)}$$$$ (last 3' nucleoside missing)” showed a 3 h FOB score of 5.8 score 0-7. With “RNA1{[moe](G)[sp].[moe](G)p.[moe](G)p.[moe]([m5C])p.[moe](A)p.d(G)[sp].d([m5C])[sp].d(A)[sp].d(A)[sp].d([m5C])[sp].d(A)[sp].d(G)[sp].d([m5C])[sp].d(T)[sp].d([m5C])[sp].[moe](T)p.[moe](T)p.[moe](G)[sp].[moe](A)}$$$$ (last 3' nucleoside missing)” the figure was 7 score 0-7; with “RNA1{[moe](G)[sp].[moe](G)p.[moe](G)p.[moe]([m5C])p.[moe](A)p.d([m5C])[sp].d(A)[sp].d(G)[sp].d(T)[sp].d(A)[sp].d(G)[sp].d(T)[sp].d(G)[sp].d(G)[sp].d(T)[sp].[moe](A)p.[moe](T)p.[moe]([m5C])[sp].[moe](A)}$$$$ (last 3' nucleoside missing)”, 5.2 score 0-7; with “RNA1{[moe](G)[sp].[moe](G)p.[moe](T)p.[moe](A)p.[moe](A)p.d(G)[sp].d(G)[sp].d([m5C])[sp].d(A)[sp].d(G)[sp].d([m5C])[sp].d(T)[sp].d([m5C])[sp].d([m5C])[sp].d(T)[sp].[moe](G)p.[moe](A)p.[moe]([m5C])[sp].[moe](A)}$$$$ (last 3' nucleoside missing)”, 1.3 score 0-7. With “RNA1{[moe](G)[sp].[moe](G)p.[moe](T)p.[moe](A)p.[moe](G)p.d(T)[sp].d([m5C])[sp].d(T)[sp].d(A)[sp].d(T)[sp].d(A)[sp].d(T)[sp].d(T)[sp].d(T)[sp].d(G)[sp].[moe](G)p.[moe](T)p.[moe](A)[sp].[moe](A)}$$$$ (last 3' nucleoside missing)” the figure was 6.2 score 0-7. On to “RNA1{[moe](G)[sp].[moe](G)p.[moe](T)p.[moe](A)p.[moe](G)p.d([m5C])[sp].d([m5C])[sp].d([m5C])[sp].d([m5C])[sp].d(A)[sp].d(A)[sp].d(T)[sp].d(A)[sp].d([m5C])[sp].d(A)[sp].[moe](G)p.[moe](A)p.[moe](T)[sp].[moe](T)}$$$$ (last 3' nucleoside missing)”, for which the 3 h FOB score was 1 score 0-7. In turn, “RNA1{[moe](G)[sp].[moe](G)p.[moe](T)p.[moe](A)p.[moe](T)p.d(T)[sp].d(G)[sp].d(A)[sp].d([m5C])[sp].d(A)[sp].d([m5C])[sp].d([m5C])[sp].d(T)[sp].d([m5C])[sp].d([m5C])[sp].[moe](A)p.[moe](A)p.[moe]([m5C])[sp].[moe](T)}$$$$ (last 3' nucleoside missing)” gave a 3 h FOB score of 5 score 0-7. In turn, “RNA1{[moe](G)[sp].[moe](G)p.[moe](T)p.[moe](T)p.[moe](A)p.d(A)[sp].d(G)[sp].d(T)[sp].d([m5C])[sp].d(T)[sp].d(G)[sp].d([m5C])[sp].d(T)[sp].d([m5C])[sp].d(T)[sp].[moe](T)p.[moe](T)p.[moe]([m5C])[sp].[moe](A)}$$$$ (last 3' nucleoside missing)” gave a 3 h FOB score of 4 score 0-7. As to “RNA1{[moe](G)[sp].[moe](G)p.[moe](T)p.[moe](T)p.[moe](A)p.d(G)[sp].d(G)[sp].d(G)[sp].d([m5C])[sp].d(T)[sp].d(A)[sp].d(T)[sp].d(G)[sp].d(T)[sp].d(T)[sp].[moe](A)p.[moe](T)p.[moe](G)[sp].[moe](T)}$$$$ (last 3' nucleoside missing)”, the 3 h FOB score came to 6 score 0-7. Under “RNA1{[moe](G)[sp].[moe](G)p.[moe](T)p.[moe](T)p.[moe](T)p.d(A)[sp].d(G)[sp].d(G)[sp].d(T)[sp].d([m5C])[sp].d(A)[sp].d(A)[sp].d([m5C])[sp].d([m5C])[sp].d(A)[sp].[moe](A)p.[moe](T)p.[moe](T)[sp].[moe](T)}$$$$ (last 3' nucleoside missing)” stands 6 score 0-7. With “RNA1{[moe](G)[sp].[moe](G)p.[moe](T)p.[moe](T)p.[moe](T)p.d(A)[sp].d(G)[sp].d(T)[sp].d(G)[sp].d(T)[sp].d([m5C])[sp].d(A)[sp].d(T)[sp].d(A)[sp].d(T)[sp].[moe](G)p.[moe](T)p.[moe](A)[sp].[moe](G)}$$$$ (last 3' nucleoside missing)” the figure was 5.5 score 0-7.

For the substance “RNA1{[moe](G)[sp].[moe](G)p.[moe](T)p.[moe]([m5C])[sp].d(A)[sp].d(T)[sp].d([m5C])[sp].d(T)[sp].d([m5C])[sp].d(G)[sp].d(G)[sp].d(G)[sp].[moe](T)p.[moe](A)p.[moe](T)p.[moe](A)[sp].[moe](T)}$$$$ (last 3' nucleoside missing)”, the 3 h FOB score was 6.3 score 0-7.

On to “RNA1{[moe](G)[sp].[moe](G)p.[moe](T)p.[moe]([m5C])p.[moe](A)[sp].d(T)[sp].d([m5C])[sp].d(T)[sp].d([m5C])[sp].d(G)[sp].d(G)[sp].d(G)[sp].d(T)[sp].[moe](A)p.[moe](T)p.[moe](A)[sp].[moe](T)}$$$$ (last 3' nucleoside missing)”, for which the 3 h FOB score came to 6 score 0-7. With “RNA1{[moe](G)[sp].[moe](G)p.[moe](T)p.[moe]([m5C])p.[moe](A)p.[moe](A)p.d([m5C])[sp].d([m5C])[sp].d(A)[sp].d(A)[sp].d(T)[sp].d(T)[sp].d(T)[sp].d(G)[sp].d([m5C])[sp].d(T)[sp].[moe](A)p.[moe](T)[sp].[moe](T)}$$$$ (last 3' nucleoside missing)” the figure was 5 score 0-7. With “RNA1{[moe](G)[sp].[moe](G)p.[moe](T)p.[moe]([m5C])p.[moe](A)p.[moe](T)[sp].d([m5C])[sp].d(T)[sp].d([m5C])[sp].d(G)[sp].d(G)[sp].d(G)[sp].d(T)[sp].d(A)[sp].[moe](T)p.[moe](A)[sp].[moe](T)}$$$$ (last 3' nucleoside missing)” the figure was 6 score 0-7.

The record behind these values is the OligoGym collection.
